Data on seven compounds can be found in article PMC10087775, “ProX from marine Synechococcus spp. show a sole preference for glycine‐betaine with differential affinity between ecotypes” (Environmental Microbiology, 2022).

The target of one assay is TmoX. The arrangement: method as in Li et al. ([2015]). Conditions: ref Li et al. ([2015]); read-out: Affinity (K D); cited from earlier work.
The next assay concerns the target ChoX. On the set-up: method as in Oswald et al. ([2008]). Conditions: ref Oswald et al. ([2008]); read-out: Affinity (K D); cited from earlier work.
A further assay concerns the target OpuAC. The arrangement: method as in Wolters et al. ([2010]). Conditions: ref Wolters et al. ([2010]), read-out: Affinity (K D), cited from earlier work.
The target in assay [1] is ProX. The arrangement: method as in Schiefner, Holtmann, et al. ([2004]). Particulars: ref Schiefner, Holtmann, et al. ([2004]); read-out: Affinity (K D); cited from earlier work.
Assay [2] deals with T1, WH8102_ProX (Parasynechococcus marenigrum, UniProt Q7U4Z5). In words: Modified DSF (isothermal analysis, FoldAffinity) binding affinity of WH8102_ProX. The arrangement: species or system Synechococcus sp. WH8102. Particulars: for Kd: read-out: Affinity (K D). The method, then:
(§1) The DSF assay was modified to elucidate binding kinetics, following a published protocol specifically outlining this application, and validated using SBPs (Bai et al., [2019]). Briefly, a range of protein concentrations were tested (2–20 μM) to determine the optimal signal‐to‐noise ratio while requiring a low protein concentration (5 μM). Protein solutions were prepared in Buffer A at a concentration of 10 μM, with a 50× concentration of SYPRO Orange dye. Working stocks of ligands were prepared independently (in Buffer A) at the following concentrations: 0.4, 0.8, 1.6, 3.2, 6.4, 12.8, 25, 50, 100, 200, 2000 μM. ProX protein and ligands (10 μl each) were both delivered in triplicate into a 96‐well plate (final volume 20 μl). Plates were centrifuged in a benchtop plate spinner (1 min) to ensure sample homogeneity before recording fluorescence data across the thermal ramp as previously described.
(§2) Data were processed using two independent software packages: the provided Python package (Bai et al., [2019]) and the web‐based FoldAffinity tool (Niebling et al., [2021]) to ensure their consistency and determine affinity values. The final values reported were taken from FoldAffinity. Processed results were then plotted (GraphPad Prism) to generate publication‐quality figures of the processed data.
(§3) Purified ProX samples were subjected to binding kinetics determination using a modified DSF approach (Bai et al., [2019]; Niebling et al., [2021]). This approach was selected due to aberrant noise in calorimetric and tryptophan quenching experiments, attributed to possible dimer‐monomer interconversion co‐occurring with ligand‐binding events. […] This is related to the proportion of folded versus unfolded protein at a single temperature (isothermal analysis) using a selected temperature value (T sel ) slightly above the T M previously determined. Using the FoldAffinity tool (Niebling et al., [2021]), non‐linear regression and curve fitting of the processed thermal melt curves allowed the determination of ligand dissociation constants (K D ) for each protein and ligand partner.

Another assay addresses (UniProt A0A7G8ITR3). In words: Modified DSF (isothermal analysis, FoldAffinity) binding affinity of MITS9220_ProX. Conditions: read-out: Affinity (K D). The arrangement: species or system Synechococcus sp. MITS9220. The procedure: as §1, §2, §3
Assay [3] concerns the target ProX. On the set-up: method as in Schiefner, Breed, et al. ([2004]). Particulars: ref Schiefner, Breed, et al. ([2004]); read-out: Affinity (K D); cited from earlier work.
Another assay relates to MITS9220_ProX. Description: DSF thermal melt ligand screening of MITS9220_ProX. It counts as binding, Synechococcus sp. MITS9220. Conditions: ligand tested independently by DSF. The method, then:
(§4) Commercially available libraries of small molecules were tested as potential binding partners to ProX by recording differential scanning fluorimetry (DSF) responses over a thermal gradient (Neisen et al., [2007]). SYPRO Orange dye (Invitrogen) was used to monitor fold integrity in discrete protein mixtures by measuring fluorescence at 590 nm following excitation at 485 nm using a Stratagene MX3000P q‐PCR instrument. Compounds tested in 96‐well blocks incorporated common protein stabilizing ligands (HR2‐096 Silver Bullets, Hampton Research) and single‐molecule osmolyte sources (MicroPlate PM9, Biolog Inc). The concentration of these compounds following reaction set‐up was ~4 μM, and, therefore below the concentration required to effect complete saturation of the binding pocket. Each condition was tested in triplicate, with each plate containing a control well with no additive.
(§5) Thermal melt curves were analysed using the analysis template provided (Neisen et al., [2007]) and fitting of Boltzmann distribution (GraphPad Prism) for the determination of mid‐point thermal melt temperatures (Bai et al., [2019]). The only condition (Silver Bullets well #D8) leading to a significant increase (>3°C) in melting temperature was deconvoluted to identify the single component leading to such a change and repeated in triplicate.
A general note: Differential scanning fluorimetry follows unfolding on heating by fluorescence.

Assay [4] concerns the target T1, WH8102_ProX. In words: DSF thermal melt ligand screening of WH8102_ProX. It counts as binding, Synechococcus sp. WH8102. Conditions: ligand tested independently by DSF. The method, then: as §4, §5
Setting [5] is: 0.50 M NaCl (Buffer A), Tsel 62°C.

Each structure is given as a SMILES string. Read-outs that look alike come from different tables or passages of the source.

Chain of (UniProt A0A7G8ITR3) (A0A7G8ITR3 40-334 limits assumed): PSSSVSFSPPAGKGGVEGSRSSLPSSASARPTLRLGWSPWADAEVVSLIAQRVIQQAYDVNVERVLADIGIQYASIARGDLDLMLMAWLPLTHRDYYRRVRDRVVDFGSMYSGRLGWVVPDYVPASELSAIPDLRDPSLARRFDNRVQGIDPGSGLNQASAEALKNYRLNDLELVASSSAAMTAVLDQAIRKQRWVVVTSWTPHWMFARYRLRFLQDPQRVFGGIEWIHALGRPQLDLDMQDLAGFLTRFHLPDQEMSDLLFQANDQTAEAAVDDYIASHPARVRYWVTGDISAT
T1 sequence (Q7U4Z5 entry or part of it): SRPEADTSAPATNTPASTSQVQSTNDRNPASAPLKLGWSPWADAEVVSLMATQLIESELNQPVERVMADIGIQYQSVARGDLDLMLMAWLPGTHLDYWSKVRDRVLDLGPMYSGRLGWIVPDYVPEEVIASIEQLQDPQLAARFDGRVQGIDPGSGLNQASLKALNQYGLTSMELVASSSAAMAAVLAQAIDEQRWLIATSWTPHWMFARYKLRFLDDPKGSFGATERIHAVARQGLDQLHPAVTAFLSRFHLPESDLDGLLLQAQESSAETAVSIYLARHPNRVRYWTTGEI

As for `C[N+](C)(C)CCO` [Choline], the Kd was 3.8 µM on TmoX and 2.7 µM at ChoX.

On to `O=C(O)[C@@H]1CCCN1` [Proline], for which the Kd on OpuAC (dash with footnote b) is above 10000 µM.

For the compound `C[N+](C)(C)[O-]` [Trimethylamine oxide], the Kd on TmoX was 1.6 µM.

For `C[N+](C)(C)CC(=O)[O-]` [glycine betaine], the Kd is 0.06 µM at ProX [1]; 13 ± 0.5 µM at WH8102_ProX [2] (0.25 M NaCl); 12 µM at WH8102_ProX [2] (0.50 M NaCl (Buffer A)); 13 ± 0.7 µM on WH8102_ProX [2] (1.5 M NaCl); 1.1 µM at (UniProt A0A7G8ITR3) (0.25 M NaCl); 1.2 µM on (UniProt A0A7G8ITR3) (setting [5]). Besides, the Kd is 0.52 µM at (UniProt A0A7G8ITR3) (1.5 M NaCl) and 1 µM at ProX [3].

Turning to `CC(=O)OCC[N+](C)(C)C` [Acetylcholine], the Kd at ChoX was 145 µM.

Turning to `C[N+]1(C)CCC[C@H]1C(=O)[O-]` [proline betaine], the Kd at ProX [1] is 0.05 µM; at WH8102_ProX [2] (0.50 M NaCl (Buffer A)), 250 ± 80 µM; on (UniProt A0A7G8ITR3) (setting [5]), above 1000 µM; at ProX [3], 5 µM; on OpuAC it was 41 µM. The TM shift result in the assay with MITS9220_ProX is “approximately 4 °C”; on WH8102_ProX [4], below 2 °C. For the same compound, on WH8102_ProX [2] (modified DSF, Figure S3), the “shifts in observed melting temperatures upon incremental addition of ligand” value is given as “negligible shifts”.

For `C[N+](C)(C)CC(O)CC(=O)[O-]` (stereo not shown) [Carnitine], the Kd at OpuAC (dash with footnote b) was above 10000 µM.
